System: Vγ9Vδ2 T cells
Assay: Activation of Vγ9Vδ2 T cells (TNF-α, flow cytometry) by PC3 prostate carcinoma cells co-cultured with expanded PBMC
Assay type: cell-based, human
Experimental: PC3 cells were transduced with either LV-vector, LV-BTN3A3 (R381H), or LV-BTN3A3 (WT). Three days after transduction, cells were treated with or without 1 μM zoledronic acid. After 24 hours, the transduced PC3 cells were co-cultured with 5×10^5 PBMC cells and IL-2 in a round bottom 96 well plate for 4 hours. The PBMC cells were pre-stimulated with zoledronic acid and IL-2 for 11 days to expand Vγ9Vδ2 T cells. After staining for Vγ9Vδ2 and TNF-α using fluorophore-conjugated anti TCR-Vδ2 and anti-TNF-α antibody, cells were analyzed via flow cytometry. Live cells were gated, and Vδ2+ and TNF-α+ cells were selected on a dot blot. The activated cytotoxic Vγ9Vδ2 T cells appeared in the upper right quadrant of flow cytograms. Without zoledronic acid, the percent of TNF-α expressing Vγ9Vδ2 T cells was 0.37% with LV-vector, 26.7% with BTN3A3 (R381H), and 0.44% with LV-BTN3A3 (WT). With zoledronic acid, the percent of TNF-α expressing Vγ9Vδ2 T cells was 8.91% with LV-vector, 35.2% with BTN3A3 (R381H), and 8.76% with LV-BTN3A3 (WT).
PC3 cells were transduced with LV-vector, LV-BTN3A3 (R381H), or LV-shFDPS-BTN3A3 (R381H). Three days after transduction, cells were treated with or without 1 μM zoledronic acid. After 24 hours, the transduced PC3 cells were co-cultured with 5×10^5 PBMC cells and IL-2 in a round bottom 96 well plate for 4 hours. The PBMC cells were pre-stimulated with zoledronic acid and IL-2 for 11 days to expand Vγ9Vδ2 T cells. After staining for Vγ9Vδ2 and TNF-α using fluorophore-conjugated anti TCR-Vδ2 and anti-TNF-α antibody, cells were analyzed via flow cytometry. Live cells were gated, and Vδ2+ and TNF-α+ cells were selected on a dot blot. The activated cytotoxic Vγ9Vδ2 T cells appeared in the upper right quadrant of flow cytograms. Without zoledronic acid, the percent of TNF-α expressing Vγ9Vδ2 T cells was 0.1% with LV-vector, 21.1% with BTN3A3 (R381H), and 18.2% with the combination of LV-shFDPS-BTN3A3 (R381H). With zoledronic acid, the percent of TNF-α expressing Vγ9Vδ2 T cells was 13.6% with LV-vector, 25.5% with BTN3A3 (R381H), and 39.6% with the combination of LV-shFDPS-BTN3A3 (R381H).
PC3 cells were transduced with LV-shFDPS or LV-shFDPS-IL-2. Three days after transduction, cells were treated with or without 1 μM zoledronic acid. After 24 hours, the transduced PC3 cells were co-cultured with 5×10^5 PBMC cells and with or without IL-2 in a round bottom 96 well plate for 4 hours. The PBMC cells were pre-stimulated with zoledronic acid and IL-2 for 11 days to expand Vγ9Vδ2 T cells. After staining for Vγ9Vδ2 and TNF-α using fluorophore-conjugated anti TCR-Vδ2 and anti-TNF-α antibody, cells were analyzed via flow cytometry. Live cells were gated, and Vδ2+ and TNF-α+ cells were selected on a dot blot. The activated cytotoxic Vγ9Vδ2 T cells appeared in the upper right quadrant of flow cytograms. With only zoledronic acid, the percent of TNF-α expressing Vγ9Vδ2 T cells was 24.6% with LV-shFDPS and 46.8% with LV-shFDPS-IL-2. With zoledronic acid and IL-2, the percent of TNF-α expressing Vγ9Vδ2 T cells was 48.6% with LV-shFDPS and 41% with LV-shFDPS-IL-2.
PC3 cells were transduced with LV-vector, LV-shFDPS, or LV-shFDPS-IL-15. Three days after transduction, cells were treated with or without 1 μM zoledronic acid. After 24 hours, the transduced PC3 cells were co-cultured with 5×10^5 PBMC cells and with or without IL-2 in a round bottom 96 well plate for 4 hours. The PBMC cells were pre-stimulated with zoledronic acid and IL-2 for 11 days to expand Vγ9Vδ2 T cells. After staining for Vγ9Vδ2 and TNF-α using fluorophore-conjugated anti TCR-Vδ2 and anti-TNF-α antibody, cells were analyzed via flow cytometry. Live cells were gated, and Vδ2+ and TNF-α+ cells were selected on a dot blot. The activated cytotoxic Vγ9Vδ2 T cells appeared in the upper right quadrant of flow cytograms. With only zoledronic acid, the percent of TNF-α expressing Vγ9Vδ2 T cells was 10% with LV-vector, 13% with LV-shFDPS, and 14.6% with LV-shFDPS-IL-15. […]

[1] = Example 25, FIG. 29, LV-FDPS shRNA #4 transduced PC3 cells, drug 1 μM, 24 hours
[2] = Example 25, FIG. 29, LV-control transduced PC3 cells, 1 μM, 24 hours, untreated 1.73%

Row | SMILES | percent of TNF-α expressing Vγ9Vδ2 T cells [1] [%] | percent of TNF-α expressing Vγ9Vδ2 T cells [2] [%] | percent of TNF-α expressing Vγ9Vδ2 T cells (Example 25, FIG. 29, LV-FDPS shRNA #4 transduced PC3 cells, drug 5 μM, 24 hours) [%] | percent of TNF-α expressing Vγ9Vδ2 T cells (Example 25, FIG. 29, LV-control transduced PC3 cells, 5 μM, 24 hours, untreated 1.73%) [%] | percent of TNF-α expressing Vγ9Vδ2 T cells (Example 3, LV-vector (control) transduced PC3 cells, 1 μM zoledronic acid) [%] | percent of TNF-α expressing Vγ9Vδ2 T cells (Example 5, LV-vector (control) transduced PC3 cells, 1 μM zoledronic acid) [%] | percent of TNF-α expressing Vγ9Vδ2 T cells (Example 8, LV-vector (control) transduced PC3 cells, only zoledronic acid (1 μM)) [%] | percent of TNF-α expressing Vγ9Vδ2 T cells (Example 8, LV-vector (control) transduced PC3 cells, zoledronic acid (1 μM) and IL-2) [%] | percent of TNF-α expressing Vγ9Vδ2 T cells (Example 19, LV-control transduced PC3 cells, 1 μM zoledronic acid) [%] | percent of TNF-α expressing Vγ9Vδ2 T cells (Example 23, LV-control transduced PC3 cells, 1 μM zoledronic acid) [%]
1 | COC(=O)[C@H](CCSC)NC(=O)c1ccc(NC[C@@H](N)CS)cc1-c1ccccc1 [FT1277] | 2.44 | 1.64 | – | – | – | – | – | – | – | –
2 | C=C(CC[C@]12O[C@H](C(=O)O)[C@@](O)(C(=O)O)[C@](C(=O)O)(O1)[C@H](OC(=O)/C=C/[C@@H](C)C[C@@H](C)CC)[C@H]2O)[C@@H](OC(C)=O)[C@H](C)Cc1ccccc1 [zaragozic acid] | – | – | 2.66 | 1.57 | – | – | – | – | – | –
3 | O=P(O)(O)C(O)(Cn1ccnc1)P(=O)(O)O [zoledronic acid] | 50.3 | 2.87 | – | – | 8.91 | 13.6 | 10 | 14.5 | 5.71 | 8.66
